From paper PMC4974736, “Corynebacterium glutamicum possesses β-N-acetylglucosaminidase” (BMC Microbiology, 2016)

Assays:
Format in all cases: biochemical
[1] = target: T1, NagZ (Bacillus subtilis, UniProt P40406); test: p-nitrophenol release at […] nm; conditions: 100 mM phosphate pH 7.0; cell extract of overexpressing C. glutamicum; turnover only
T1 construct: codon-optimized synthetic gene in pEKEx3, overexpressed in C. glutamicum; cell extract, not purified
T1 sequence (P40406 17-642): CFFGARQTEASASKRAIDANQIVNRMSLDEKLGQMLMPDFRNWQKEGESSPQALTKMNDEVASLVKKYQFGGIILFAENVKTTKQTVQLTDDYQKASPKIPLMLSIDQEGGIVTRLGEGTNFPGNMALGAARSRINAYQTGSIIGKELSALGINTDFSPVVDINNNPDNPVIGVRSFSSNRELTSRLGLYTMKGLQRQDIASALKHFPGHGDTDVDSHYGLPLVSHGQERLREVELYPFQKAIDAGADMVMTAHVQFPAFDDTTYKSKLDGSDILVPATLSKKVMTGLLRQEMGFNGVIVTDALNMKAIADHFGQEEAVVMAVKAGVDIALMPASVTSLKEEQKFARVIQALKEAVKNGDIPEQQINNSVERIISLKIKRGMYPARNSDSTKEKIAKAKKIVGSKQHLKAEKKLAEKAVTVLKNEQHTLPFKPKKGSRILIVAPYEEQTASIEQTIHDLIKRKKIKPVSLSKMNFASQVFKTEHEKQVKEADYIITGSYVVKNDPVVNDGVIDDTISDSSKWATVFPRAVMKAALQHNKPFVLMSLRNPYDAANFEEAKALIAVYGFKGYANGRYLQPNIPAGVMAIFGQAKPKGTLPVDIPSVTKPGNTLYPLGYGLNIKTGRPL

[2] = target: T2, NagA2 lacking its own signal peptide (SP-less-nagA2) (Corynebacterium glutamicum, UniProt Q8NLT5); test: p-nitrophenol release at […] nm, Eadie-Hofstee plot; conditions: 100 mM phosphate pH 7.0; cell extract fraction of overexpressing C. glutamicum
T2 construct: gene Cgl2852; predicted native signal peptide removed; overexpressed from pEKEx3 in C. glutamicum; cell extract, not purified

[3] = target: T3, NagA2 fused to the C. glutamicum PhoD signal peptide (PhoD-nagA2) (Corynebacterium glutamicum, UniProt Q8NLT5); test: p-nitrophenol release at […] nm, Eadie-Hofstee plot; conditions: 100 mM phosphate pH 7.0; culture supernatant of overexpressing C. glutamicum
T3 construct: gene Cgl2852; native signal peptide replaced by TAT signal peptide of PhoD (cg2485), expected to be cleaved on export; pEKEx3 in C. glutamicum; culture supernatant, not purified

[4] = target: T4, ChiB (Serratia marcescens, UniProt P11797); test: p-nitrophenol release at […] nm; conditions: 100 mM phosphate pH 7.0; cell extract and supernatant of overexpressing C. glutamicum; turnover only
T4 construct: native form or fused to TAT signal peptide of Cg0955 (SP0955); pEKEx3 in C. glutamicum; cell extract and supernatant, not purified
T4 sequence (P11797 1-499 limits assumed): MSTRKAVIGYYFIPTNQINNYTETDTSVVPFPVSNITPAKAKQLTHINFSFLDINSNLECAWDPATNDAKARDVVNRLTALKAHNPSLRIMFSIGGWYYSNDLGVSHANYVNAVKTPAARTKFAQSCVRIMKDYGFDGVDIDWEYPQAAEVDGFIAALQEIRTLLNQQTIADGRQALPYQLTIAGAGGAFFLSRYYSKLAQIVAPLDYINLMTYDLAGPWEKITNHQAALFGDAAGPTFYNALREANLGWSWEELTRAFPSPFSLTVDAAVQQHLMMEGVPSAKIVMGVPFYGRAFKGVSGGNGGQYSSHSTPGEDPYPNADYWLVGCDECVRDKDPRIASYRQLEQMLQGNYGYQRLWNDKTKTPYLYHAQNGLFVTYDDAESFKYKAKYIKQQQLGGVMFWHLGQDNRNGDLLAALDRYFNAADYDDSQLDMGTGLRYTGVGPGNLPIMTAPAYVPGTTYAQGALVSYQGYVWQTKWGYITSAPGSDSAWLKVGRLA

T2 sequence (Q8NLT5 entry or part of it): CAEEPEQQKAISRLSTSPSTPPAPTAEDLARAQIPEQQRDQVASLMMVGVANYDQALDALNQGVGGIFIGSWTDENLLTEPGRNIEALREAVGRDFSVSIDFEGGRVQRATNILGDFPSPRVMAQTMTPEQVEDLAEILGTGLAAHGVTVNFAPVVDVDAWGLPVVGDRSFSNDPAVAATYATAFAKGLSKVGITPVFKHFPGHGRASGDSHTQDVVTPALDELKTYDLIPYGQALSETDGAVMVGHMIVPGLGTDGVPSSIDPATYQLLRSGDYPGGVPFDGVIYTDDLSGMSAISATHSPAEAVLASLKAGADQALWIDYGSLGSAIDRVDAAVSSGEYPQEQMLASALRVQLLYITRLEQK
T3 sequence (Q8NLT5 entry or part of it): as above

Row | SMILES | p-nitrophenol release at 405 nm [1] | Km [2] | Km [3] | p-nitrophenol release at 405 nm [4]
1 | CC(=O)N[C@H]1[C@H](Oc2ccc([N+](=O)[O-])cc2)O[C@H](CO)[C@@H](O)[C@@H]1O [4-Nitrophenyl N-acetyl-β-D-glucosaminide] | NagZ produced in C. glutamicum led to an intracellular specific activity of N-acetylglucosaminidase |  |  | 
2 | CC(=O)N[C@H]1[C@H](Oc2ccc([N+](=O)[O-])cc2)O[C@H](CO)[C@@H](O[C@@H]2O[C@H](CO)[C@@H](O)[C@H](O)[C@H]2NC(C)=O)[C@@H]1O [4-nitrophenyl N,N’-diacetyl-β-D-chitobioside] |  | 266 ± 37 µM | 270 ± 66 µM | chitinase activity was quantified by measuring the hydrolysis of p-nitrophenol from 4-Nitrophenyl N,N’-diacetyl-β-D-chitobioside
